Experimental data from ChEMBL document CHEMBL1130453, “Synthesis and biological activity of a new anti-factor Xa pentasaccharide with a C-interglycosidic bond” (Bioorg Med Chem Lett, 1997).

Tests used:
[1] = biological target: Coagulation factor X (Homo sapiens) (UniProt P00742); test: Anti-factor Xa activity by amidolytic method.
[2] = biological target: Antithrombin-III (Homo sapiens, UniProt P01008); test: In vitro binding affinity against antithrombin III (AT III) was determined by fluorescence spectroscopy
Chain of Antithrombin-III (P01008 whole entry): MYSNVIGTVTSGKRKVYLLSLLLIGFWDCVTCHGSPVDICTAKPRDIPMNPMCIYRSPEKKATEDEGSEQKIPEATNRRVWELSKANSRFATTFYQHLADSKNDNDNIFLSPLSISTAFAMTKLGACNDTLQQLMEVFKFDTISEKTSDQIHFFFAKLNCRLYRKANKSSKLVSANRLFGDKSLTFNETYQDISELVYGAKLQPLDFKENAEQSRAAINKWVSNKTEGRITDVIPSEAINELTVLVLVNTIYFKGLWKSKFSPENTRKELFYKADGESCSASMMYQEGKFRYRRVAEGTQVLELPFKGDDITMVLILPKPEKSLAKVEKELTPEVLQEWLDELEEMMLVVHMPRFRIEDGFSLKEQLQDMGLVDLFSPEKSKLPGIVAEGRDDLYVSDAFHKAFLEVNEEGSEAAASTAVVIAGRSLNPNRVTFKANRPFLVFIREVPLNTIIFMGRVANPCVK

Chain of Coagulation factor X (Homo sapiens) (P00742 41-179 limits assumed): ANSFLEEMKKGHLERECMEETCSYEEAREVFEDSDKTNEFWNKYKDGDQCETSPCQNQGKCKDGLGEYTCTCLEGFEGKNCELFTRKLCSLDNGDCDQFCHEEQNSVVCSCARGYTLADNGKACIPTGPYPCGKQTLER
Chain of Coagulation factor X (Homo sapiens) (P00742 235-488 limits assumed): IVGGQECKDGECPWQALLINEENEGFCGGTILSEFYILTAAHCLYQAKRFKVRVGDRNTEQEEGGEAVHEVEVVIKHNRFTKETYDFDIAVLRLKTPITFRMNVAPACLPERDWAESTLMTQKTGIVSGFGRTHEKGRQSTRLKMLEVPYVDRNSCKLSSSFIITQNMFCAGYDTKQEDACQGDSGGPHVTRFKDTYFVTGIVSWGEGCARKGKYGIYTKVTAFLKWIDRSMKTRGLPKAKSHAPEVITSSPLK

| Anti-Factor Xa activity [1] | Kd [2] | Structure (SMILES) |
| --- | --- | --- |
| 880 U/mg | 2.8 nM | CO[C@H]1O[C@@H](COS(=O)(=O)O)[C@@H](O[C@@H]2O[C@@H](C(=O)O)[C@H](O[C@H]3O[C@@H](COS(=O)(=O)O)[C@@H](O[C@@H]4O[C@@H](C(=O)O)[C@@H](C[C@H]5O[C@@H](COS(=O)(=O)O)[C@@H](OC)[C@H](OC)[C@@H]5OC)[C@H](OC)[C@@H]4OC)[C@H](OS(=O)(=O)O)[C@@H]3OS(=O)(=O)O)[C@H](OC)[C@H]2OC)[C@H](OS(=O)(=O)O)[C@@H]1OS(=O)(=O)O |
| 1180 U/mg |  | CO[C@H]1O[C@@H](COS(=O)(=O)O)[C@@H](O[C@@H]2O[C@@H](C(=O)O)[C@H](O[C@H]3O[C@@H](COS(=O)(=O)O)[C@@H](O[C@@H]4O[C@@H](C(=O)O)[C@@H](O[C@H]5O[C@@H](COS(=O)(=O)O)[C@@H](OC)[C@H](OC)[C@@H]5OC)[C@H](OC)[C@@H]4OC)[C@H](OS(=O)(=O)O)[C@@H]3OS(=O)(=O)O)[C@H](OC)[C@H]2OC)[C@H](OS(=O)(=O)O)[C@@H]1OS(=O)(=O)O |
